In patent publication US8431613B2, “Memory fixation accelerator” (Research Foundation ITSUU Laboratory, priority 2004, dated 2013):
Marks after values point to notes of the source that are not given here.

Tested on: Slc:Wistar male rats given scopolamine
Test: Passive avoidance reaction (shuttle type avoidance test box) in scopolamine-treated rats
Format: in vivo, rat
Conditions: for latent time compared with the control group: Example 2, scopolamine 0.25 or 0.5 mg/kg, drug treatment from the 2nd day
Description: 6-Week old Slc:Wistar male rats were used for the experiment after preliminary breeding including one week of quarantine. The animals were individually bred under an environment at a temperature of 22±3° C. and a humidity of 50±20% with illumination of 12 hours (8:00 to 20:00) for both the preliminary breeding and experimental periods, and the animals were given pellets (Labo MR Stock, Nihon Nosan Kogyo K.K.) and tap water ad libitum. The animals were divided into groups according to body weights as an index (10 animals/group), and trials for acquisition and reproduction of memory were performed. Each trial was performed by using a shuttle type avoidance test box. […] Each animal was put into the light room, time until the animal moved to the dark room (latent time) was measured up to 5 minutes, and when the rat moved to the darkroom, the partition was shut, and shock was given by electrification.
Each animal was subcutaneously given 0.5 mg/kg of scopolamine 30 minutes before the trial, and this procedure was continued for seven days. Scopolamine, which is an anticholinergic agent, is known to block the muscarinic acetylcholine receptor in the striate body and inhibit acquisition of new memory (Folia Pharmacol. Jpn., 97, pp. 351-359, 1991). From the third day, the test substance (Am80: 4-[(5,6,7,8-tetrahydro-5,5,8,8-tetramethyl-2-naphthalenyl)carbamoyl]benzoic acid, 10 mg/kg/day) was orally given 3 hours before the scopolamine treatment. With numerical values obtained, average and standard deviation were calculated for each group, and a homoscedasticity test was performed by F-test between the control group (no Am80 treatment) and Am80-treated group. When homoscedasticity was observed, presence or absence of significant difference was determined by Student's t-test, and when non-homoscedasticity was observed, presence or absence of significant difference was determined by Aspin-Welch's t-test.
A test was performed in the same manner as that of Example 1, except that scopolamine was given at a dose of 0.25 mg/kg or 0.5 mg/kg, and 2 mg/kg, 5 mg/kg or 12.5 mg/kg of Am80, 30 mg/kg of Tac101 (4-[(3,5-bis-trimethylsilylphenyl)-carboxamido]benzoic acid), and 10 mg/kg of HX630 (4-[2,3-(2,5-dimethyl-2,5-hexano)dibenzo[b,f][1,4]thiazepin-11-yl]benzoic acid) were given. Combinatory use of Am80 (5 mg/kg) and HX630 (10 mg/kg) was also similarly examined. Drug treatment was performed from the 2nd day.
In the same manner as that of Example 2, scopolamine was given at a dose of 0.25 mg/kg, and 10 mg/kg of 4-[5-(4,7-dimethylbenzofuran-2-yl)pyrrol-2-yl]benzoic acid (IT-K-1001) was orally given.

SMILES: CC1(C)CCC(C)(C)c2cc(NC(=O)c3ccc(C(=O)O)cc3)ccc21 [Am80, 4-[(5,6,7,8-tetrahydro-5,5,8,8-tetramethyl-2-naphthalenyl)carbamoyl]benzoic acid]
- Reaction latency (Am80 2 mg/kg/day from 2nd day, SCP 0.5 mg/kg/day, lapsed day 1): 14 s
- Reaction latency (Am80 2 mg/kg/day from 2nd day, SCP 0.5 mg/kg/day, lapsed day 2): 9 s
- Reaction latency (Am80 2 mg/kg/day from 2nd day, SCP 0.5 mg/kg/day, lapsed day 3): 23 s
- Reaction latency (Am80 2 mg/kg/day from 2nd day, SCP 0.5 mg/kg/day, lapsed day 4): 24 s
- Reaction latency (Am80 2 mg/kg/day from 2nd day, SCP 0.5 mg/kg/day, lapsed day 5): 38 s
- Reaction latency (Am80 5 mg/kg/day from 2nd day, SCP 0.25 mg/kg/day, lapsed day 1): 14 s
- Reaction latency (Am80 5 mg/kg/day from 2nd day, SCP 0.25 mg/kg/day, lapsed day 2): 15 s
- Reaction latency (Am80 5 mg/kg/day from 2nd day, SCP 0.25 mg/kg/day, lapsed day 3): 53 s
- Reaction latency (Am80 5 mg/kg/day from 2nd day, SCP 0.25 mg/kg/day, lapsed day 4): 80 s
- Reaction latency (Am80 5 mg/kg/day from 2nd day, SCP 0.25 mg/kg/day, lapsed day 5): 155 s
- Reaction latency (Am80 5 mg/kg/day from 2nd day, SCP 0.5 mg/kg/day, lapsed day 1): 19 s
- Reaction latency (Am80 5 mg/kg/day from 2nd day, SCP 0.5 mg/kg/day, lapsed day 2): 18 s
- Reaction latency (Am80 5 mg/kg/day from 2nd day, SCP 0.5 mg/kg/day, lapsed day 3): 38 s
- Reaction latency (Am80 5 mg/kg/day from 2nd day, SCP 0.5 mg/kg/day, lapsed day 4): 52 s
- Reaction latency (Am80 5 mg/kg/day from 2nd day, SCP 0.5 mg/kg/day, lapsed day 5): 71 s
- Reaction latency (Am80 10 mg/kg/day oral from 3rd day, scopolamine 0.5 mg/kg s.c., lapsed day 1 (before treatment)): 15 s
- Reaction latency (Am80 10 mg/kg/day oral from 3rd day, scopolamine 0.5 mg/kg s.c., lapsed day 2 (before treatment)): 14 s
- Reaction latency (Am80 10 mg/kg/day oral from 3rd day, scopolamine 0.5 mg/kg s.c., lapsed day 3): 26 s
- Reaction latency (Am80 10 mg/kg/day oral from 3rd day, scopolamine 0.5 mg/kg s.c., lapsed day 4): 88 s
- Reaction latency (second) (Am80 10 mg/kg/day oral from 3rd day, scopolamine 0.5 mg/kg s.c., lapsed day 5): 149** second
- Reaction latency (second) (Am80 10 mg/kg/day oral from 3rd day, scopolamine 0.5 mg/kg s.c., lapsed day 6): 163** second
- Reaction latency (second) (Am80 10 mg/kg/day oral from 3rd day, scopolamine 0.5 mg/kg s.c., lapsed day 7): 162** second
- Reaction latency (Am80 12.5 mg/kg/day from 2nd day, SCP 0.5 mg/kg/day, lapsed day 1): 15 s
- Reaction latency (Am80 12.5 mg/kg/day from 2nd day, SCP 0.5 mg/kg/day, lapsed day 2): 24 s
- Reaction latency (Am80 12.5 mg/kg/day from 2nd day, SCP 0.5 mg/kg/day, lapsed day 3): 43 s
- Reaction latency (Am80 12.5 mg/kg/day from 2nd day, SCP 0.5 mg/kg/day, lapsed day 4): 74 s
- Reaction latency (Am80 12.5 mg/kg/day from 2nd day, SCP 0.5 mg/kg/day, lapsed day 5): 133 s
- latent time, course from the start of the treatment (Example 1, Am80 10 mg/kg/day oral, scopolamine 0.5 mg/kg s.c., significant differences vs control from the 5th day): gradually extended
- latent time compared with the control group: gradually extended

SMILES: CC1(C)CCC(C)(C)c2cc3c(cc21)Sc1ccccc1N=C3c1ccc(C(=O)O)cc1 [HX630, 4-[2,3-(2,5-dimethyl-2,5-hexano)dibenzo[b,f][1,4]thiazepin-11-yl]benzoic acid]
- latent time compared with the control group: gradually extended
- Reaction latency (HX630 10 mg/kg/day from 2nd day, SCP 0.5 mg/kg/day, lapsed day 1): 18 s
- Reaction latency (HX630 10 mg/kg/day from 2nd day, SCP 0.5 mg/kg/day, lapsed day 2): 21 s
- Reaction latency (HX630 10 mg/kg/day from 2nd day, SCP 0.5 mg/kg/day, lapsed day 3): 30 s
- Reaction latency (HX630 10 mg/kg/day from 2nd day, SCP 0.5 mg/kg/day, lapsed day 4): 33 s
- Reaction latency (HX630 10 mg/kg/day from 2nd day, SCP 0.5 mg/kg/day, lapsed day 5): 51 s

SMILES: Cc1ccc(C)c2oc(-c3ccc(-c4ccc(C(=O)O)cc4)[nH]3)cc12 [IT-K-1001, 4-[5-(4,7-dimethylbenzofuran-2-yl)pyrrol-2-yl]benzoic acid]
- effect on the action of scopolamine (reaction latency) (Example 3, 10 mg/kg oral, scopolamine 0.25 mg/kg): markedly inhibited the effect of scopolamine
- Reaction latency (IT-K-1001 10 mg/kg/day oral, SCP 0.25 mg/kg/day, lapsed day 1): 22 s
- Reaction latency (IT-K-1001 10 mg/kg/day oral, SCP 0.25 mg/kg/day, lapsed day 2): 11 s
- Reaction latency (IT-K-1001 10 mg/kg/day oral, SCP 0.25 mg/kg/day, lapsed day 3): 106 s
- Reaction latency (IT-K-1001 10 mg/kg/day oral, SCP 0.25 mg/kg/day, lapsed day 4): 115 s
- Reaction latency (IT-K-1001 10 mg/kg/day oral, SCP 0.25 mg/kg/day, lapsed day 5): 206 s
- Reaction latency (IT-K-1001 10 mg/kg/day oral, SCP 0.25 mg/kg/day, lapsed day 6): 291 s
- Reaction latency (IT-K-1001 10 mg/kg/day oral, SCP 0.25 mg/kg/day, lapsed day 7): 300 s
- Reaction latency (IT-K-1001 10 mg/kg/day oral, SCP 0.25 mg/kg/day, lapsed day 8): 281 s

SMILES: C[Si](C)(C)c1cc(C(=O)Nc2ccc(C(=O)O)cc2)cc([Si](C)(C)C)c1 [Tac101, 4-[(3,5-bis-trimethylsilylphenyl)-carboxamido]benzoic acid]
- latent time compared with the control group: gradually extended
- Reaction latency (Tac101 30 mg/kg/day from 2nd day, SCP 0.5 mg/kg/day, lapsed day 1): 19 s
- Reaction latency (Tac101 30 mg/kg/day from 2nd day, SCP 0.5 mg/kg/day, lapsed day 2): 21 s
- Reaction latency (Tac101 30 mg/kg/day from 2nd day, SCP 0.5 mg/kg/day, lapsed day 3): 47 s
- Reaction latency (Tac101 30 mg/kg/day from 2nd day, SCP 0.5 mg/kg/day, lapsed day 4): 69 s
- Reaction latency (Tac101 30 mg/kg/day from 2nd day, SCP 0.5 mg/kg/day, lapsed day 5): 107 s
